Test results reported in article PMC7549214 (Malaria Journal, 2020).
Read-outs that look alike come from different tables or passages of the source.

How the values were obtained:
Microsomal stability = assay type: in vitro ADME, rat; conditions: RLM, Test Conc. 10 µM
in vitro = in vitro ADME; conditions: dog, plasma
CYP 3A4 = CYP 3A4 (Homo sapiens, UniProt P08684); assay: CYP inhibition; assay type: in vitro ADME
male gametocytes = assay: Male gametocyte functional viability assay; assay type: cell-based; conditions: Plasmodium falciparum
Description: Gametocyte cultures were tested for functional viability and maturity after 14 days. Testing functional viability was done by quantifying male gametocyte formation, which was carried out by withdrawing 200 μl of culture. Following this, culture was centrifuged, and the pellet was resuspended in 5 μl ookinete medium (RPMI medium with 25 mM HEPES, 50 mg/l hypoxanthine, 2 g/l sodium bicarbonate, 100 μM xanthurenic acid, and 10% A^+ human serum). The culture was observed under a microscope. […] The plates were then incubated at 37 °C for 24 h. Gamete formation was induced on day 15 and observed under the microscope following the method described by Ruecker et al.. The assay was performed using four independent biological replicates.

[1] = system: Plasmodium falciparum 3D7; assay: Plasmodium falciparum asexual blood-stage (ABS) assay; assay type: cell-based; conditions: Plasmodium falciparum, 3D7
Description: Plasmodium falciparum 3D7 strain was used for the P. falciparum asexual blood-stage (ABS) assay, for which the cells were resuscitated from the stabilate and maintained at 5% haematocrit. Red blood cells obtained from the hospital were used to maintain the culture at 1% parasitaemia while screening.
Plasmodium falciparum 3D7 cells were used as a target strain for the assay. Mefloquine (Sigma-Aldrich) was used as a standard inhibitor. At day 1, […] of 10 mM mefloquine was added to columns 12 and 24 of the sterile 384-well black, clear-bottom, cell culture assay plates followed by compound curves which were added using Echo. The P. falciparum 3D7 cells were counted and 20 ml of culture was prepared at 5% haematocrit, 0.3% parasitaemia (as one batch, i.e., 12 plates, prepare 260 ml, to allow for WellMate prime volume) for each plate. From this, 50 µl of culture was added to all wells on all plates using WellMate with small bore tubing on full (S-1) speed. The plates were placed on the bottom shelf of the incubator, with a maximum stack height of 4 plates, preferring the front of the shelf and were incubated for 72 h at 37 °C in an atmosphere of special gas mix (1% O2, 3% CO2, balance N2).
. Ten μl of the prepared buffer was added to each well on each of the assay plates and incubated overnight in the dark at room temperature. The plates were read on Victor plate reader using ‘384sybrgreen’ protocol (excitation 485 nm, emission 528 nm) after which the plate contents were aspirated into 5% Virkon, and disposed of after autoclaving. Percentage inhibition for each test compound was calculated using the following equation: %Inhibition=100-TEST COMPOUND-BLANK/NO INHIBITION-BLANK∗100)
EC50 values for standard inhibitors were determined using non-linear regression curve-fitting within Activity Base data analysis template.

Dd2 = assay: microbe, parasite or virus in culture; assay type: cell-based; conditions: Plasmodium falciparum
Plasma protein binding [2] = assay type: in vitro ADME; conditions: human
Plasma protein binding [3] = assay type: in vitro ADME; conditions: mouse, read-out: Plasma protein binding (% bound)
CYP1A2 = CYP1A2 (Homo sapiens, UniProt P05177); assay: CYP inhibition; assay type: in vitro ADME
HepG2 = assay: Cytotoxicity; assay type: cell-based
[4] = Repeated dose 14-day toxicokinetics (TK) study; assay type: in vivo, Sprague–Dawley rats; conditions: for Cmax / half-life / AUC(0-inf) / AUC(0-t) / Tmax: Sprague-Dawley, rat, po, 100 mg/kg
[5] = Repeated dose 14-day toxicity study;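 also: rats dosed once daily for 14 days, test item in Tween 80 plus methylcellulose vehicle at 10 mL/kg bw, compared against vehicle-treated G1 controls by one-way ANOVA with Dunnett test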
Description: The animal grouping was done by the method of body weight stratification and randomization. The animals procured for the study were weighed and grouped into body weight ranges. […] Tween 80 (0.1% (v/v)) + methylcellulose (0.5% (w/v)) was used as a vehicle and the test item was dosed at a dose volume of 10 mL/kg bw. The animals were dosed once a day for a period of 14 consecutive days. The test item was administered at concentrations as mentioned in the Table for G2, G3, G4, G5 groups whereas vehicle was administered to G1 group (vehicle control) at the volume of 10 mL/kg body weight. […] On days 2 to 13, animals were dosed in the fed state. During the study, observations were made for clinical signs and mortality, body weights, gross necropsy and organ weights. The data were subjected to statistical analyses using GraphPad Prism version 5.00, GraphPad Software. One way ANOVA with Dunnets post-test were done for different treatment groups compared with the control group data.

[6] = system: Plasmodium falciparum strain 3D7; assay: In vitro killing profile; assay type: cell-based; conditions: 10 × IC50
Description: Briefly, the assay used limiting dilution technique to quantify the number of parasites viable after drug treatment. […] Parasites were treated for […]. The drugs used were renewed daily over the entire treatment period. Samples of parasites were taken from the treated culture every 24 h (0, for control of the initial number of parasites, 24, 48, 72, 96, 120 h’ time points). Following this, the procedure was carried out to wash out the drugs, and drug-free parasites were cultured in 96-well plates by adding fresh erythrocytes and new media (RPMI 1640 medium). Three-fold serial dilution was used with the abovementioned samples after removing the drug to quantify the number of viable parasites after treatment. Parasites were cultured in microtitre plates to allow all wells with viable parasites to render detectable parasitaemia. Four independent serial dilutions were carried out with each sample to correct experimental variations. Samples were examined after 21 days of culturing. Additional sampling was done after 28 days to confirm the growth/no growth.

PfHDAC1 = biological target: T1, PfHDAC1 (Plasmodium falciparum, UniProt Q7K6A1); assay: PfHDAC1 fluorescent activity assay; assay type: biochemical
T1 construct: His-tag; FLAG-tag; purchased BPS Bioscience

[7] = both sexes, in vivo, rats, 100 mg/kg body weight
[8] = female, in vivo, female, day 1, 100 mg/kg bw
[9] = female, in vivo, female, day 14, 100 mg/kg bw
[10] = male, in vivo, male, day 1, 100 mg/kg bw
[11] = male, in vivo, male, day 14, 100 mg/kg bw

Chain of CYP 3A4 (P08684 whole entry, species assumed): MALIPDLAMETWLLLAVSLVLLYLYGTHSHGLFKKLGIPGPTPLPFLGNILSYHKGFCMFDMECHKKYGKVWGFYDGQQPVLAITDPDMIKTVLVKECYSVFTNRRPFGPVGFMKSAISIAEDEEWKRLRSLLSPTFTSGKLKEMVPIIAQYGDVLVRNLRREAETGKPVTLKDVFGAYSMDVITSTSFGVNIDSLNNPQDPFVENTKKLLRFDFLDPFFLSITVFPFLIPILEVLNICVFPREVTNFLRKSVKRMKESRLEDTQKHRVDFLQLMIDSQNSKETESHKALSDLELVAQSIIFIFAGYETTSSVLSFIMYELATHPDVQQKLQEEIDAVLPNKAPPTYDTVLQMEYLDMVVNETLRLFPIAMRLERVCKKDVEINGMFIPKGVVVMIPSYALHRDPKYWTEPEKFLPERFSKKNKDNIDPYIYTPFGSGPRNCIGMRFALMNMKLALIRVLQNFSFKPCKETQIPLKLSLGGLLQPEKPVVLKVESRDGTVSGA
T1 sequence (Q7K6A1 1-449): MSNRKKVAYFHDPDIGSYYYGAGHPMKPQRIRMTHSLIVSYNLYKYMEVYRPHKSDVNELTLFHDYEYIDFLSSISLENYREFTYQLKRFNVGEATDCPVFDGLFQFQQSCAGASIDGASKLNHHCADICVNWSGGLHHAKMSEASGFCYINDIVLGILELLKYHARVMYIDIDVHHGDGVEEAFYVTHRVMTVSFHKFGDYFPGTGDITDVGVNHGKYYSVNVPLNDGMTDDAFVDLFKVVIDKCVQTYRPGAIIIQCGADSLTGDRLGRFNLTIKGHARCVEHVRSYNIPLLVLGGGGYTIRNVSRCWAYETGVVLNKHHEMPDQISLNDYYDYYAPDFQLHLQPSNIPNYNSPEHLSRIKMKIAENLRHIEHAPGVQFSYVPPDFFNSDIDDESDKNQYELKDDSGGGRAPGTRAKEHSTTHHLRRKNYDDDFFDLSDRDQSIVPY
Chain of CYP1A2 (P05177 whole entry, species assumed): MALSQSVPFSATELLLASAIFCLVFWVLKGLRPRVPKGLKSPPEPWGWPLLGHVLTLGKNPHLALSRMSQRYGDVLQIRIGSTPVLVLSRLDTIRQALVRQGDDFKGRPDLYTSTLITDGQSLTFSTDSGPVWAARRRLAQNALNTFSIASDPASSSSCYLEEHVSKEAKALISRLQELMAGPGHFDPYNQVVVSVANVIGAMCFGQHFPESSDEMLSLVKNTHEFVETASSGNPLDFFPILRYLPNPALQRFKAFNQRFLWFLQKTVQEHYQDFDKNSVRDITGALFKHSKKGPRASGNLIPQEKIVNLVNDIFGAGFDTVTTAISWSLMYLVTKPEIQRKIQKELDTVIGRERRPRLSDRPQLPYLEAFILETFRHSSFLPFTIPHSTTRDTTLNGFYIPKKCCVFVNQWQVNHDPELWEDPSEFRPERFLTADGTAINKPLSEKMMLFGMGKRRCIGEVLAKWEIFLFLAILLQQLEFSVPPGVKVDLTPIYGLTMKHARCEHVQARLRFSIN

For `O=C(NO)c1ccc(Cn2cc(-c3ccc(CN4CCCC4)cc3)nn2)cc1` [FNDR-20123], the “Microsomal stability (% remaining at 120 min)” value (Microsomal stability) was 74.56%, the remaining at 2 h, 10 µM (Microsomal stability; rat, liver microsomes, read-out: Microsomal stability (% remaining at 120 min)) was over 75% and the remaining at 4 h (in vitro) was 97.7%. It also gave an IC50 (CYP 3A4) of 27000 nM, an IC50 (male gametocytes) of 190 nM and an IC50 ([1]; read-out: Anti-malarial IC50) of 40 nM. The IC50 ([1]; read-out: Anti-malarial activity Asexual Blood Stage IC50) was 42 nM, the IC50 (Dd2) was 17.5 nM and the “Plasma protein binding (% bound)” value (Plasma protein binding [2]) was 57.30%. The fraction unbound (Plasma protein binding [2]; plasma, Human, read-out: Plasma protein binding (% bound) (converted)) was 0.43, the fraction unbound (Plasma protein binding [3]) was over 0.7 and the IC50 (CYP1A2) was over 60000 nM. The “Cytotoxicity to HepG-2 cell line” value (HepG2) was “negligible cytotoxicity”, the “Cytotoxicity HepG2 (% @ 100 µM)” value (HepG2; 100 µM) was 12.6% and the “Accumulation (toxicokinetic profile)” value ([4]; 100 mg/kg bw oral gavage, 14 days) was “no accumulation”. The Cmax [4, 7] was 1100 nM, the half-life [4, 7] was 5.5 h and the half-life ([4]; female, blood, female, day 1, 100 mg/kg bw) was 3.21 ± 0.41 h. It also gave an AUC(0-inf) [4, 8] of 448 ± 113 ng·h/mL, an AUC(0-t) [4, 8] of 345 ± 71.6 ng·h/mL and a Cmax [4, 8] of 229 ± 69.3 ng/mL. The Tmax [4, 8] was 0.28 ± 0.21 h, the AUC(0-inf) [4, 9] was 573 ± 23.1 ng·h/mL and the AUC(0-t) [4, 9] was 480 ± 49.7 ng·h/mL. It also gave a Cmax [4, 9] of 207 ± 36.1 ng/mL, a Tmax [4, 9] of 0.14 ± 0.1 h and a half-life ([4]; male, blood, male, day 1, 100 mg/kg bw) of 5.72 ± 4.1 h. The half-life ([4]; male, blood, male, day 14, 100 mg/kg bw) was 2.3 ± 0.55 h, the AUC(0-inf) [4, 10] was 1280 ± 282 ng·h/mL and the AUC(0-t) [4, 10] was 712 ± 234 ng·h/mL. For the same compound, the Cmax [4, 10] was 420 ± 174 ng/mL, the Tmax [4, 10] was 0.33 ± 0.14 h and the AUC(0-inf) [4, 11] was 1080 ± 216 ng·h/mL. It also gave an AUC(0-t) [4, 11] of 957 ± 181 ng·h/mL, a Cmax [4, 11] of 703 ± 362 ng/mL and a Tmax [4, 11] of 0.19 ± 0.1 h. The “Toxic effects on body weights and organ weights” value ([5]; 14-day oral, 50, 100 and 150 mg/kg body weight, male and female rats) was “no adverse toxic effects on body weights and organ weights”, the “Adverse clinical signs or mortality” value ([5]; 14-day repeat dose oral gavage, both sexes) was “did not reveal any adverse clinical signs or mortality” and the “Abnormality in body weight or gross organ pathology” value ([5]; 14-day, 100 mg/kg daily dose) was “did not show any abnormality in body weight or gross organ pathology”. It also gave a Fasting body weight ([5]; female, G2 50 mg/kg) of 149.51 g, a Body weight ([5]; female, G2 50 mg/kg bw, day 1) of 146.45 g and a Body weight ([5]; female, G2 50 mg/kg bw, day 7) of 150.70 g. It also gave a Body weight ([5]; female, G2 50 mg/kg bw, day 14) of 161.49 g, a Body weight ([5]; female, G3 100 mg/kg bw, day 1) of 146.70 g and a Body weight ([5]; female, G3 100 mg/kg bw, day 7) of 145.63 g. For the same compound, the Body weight ([5]; female, G3 100 mg/kg bw, day 14) was 158.43 g, the Fasting body weight ([5]; female, G4 150 mg/kg) was 134.25 g and the Body weight ([5]; female, G4 150 mg/kg bw, day 7) was 139.82 g. It also gave a Body weight ([5]; female, G4 150 mg/kg bw, day 14) of 142.91 g, a Fasting body weight ([5]; male, G2 50 mg/kg) of 189.75 g and a Body weight ([5]; male, G2 50 mg/kg bw, day 1) of 166.04 g. The Body weight ([5]; male, G2 50 mg/kg bw, day 7) was 190.40 g, the Body weight ([5]; male, G2 50 mg/kg bw, day 14) was 209.30 g and the Fasting body weight ([5]; male, G3 100 mg/kg) was 163.82 g. For the same compound, the Body weight ([5]; male, G3 100 mg/kg bw, day 1) was 166.39 g, the Body weight ([5]; male, G3 100 mg/kg bw, day 7) was 173.72 g and the Body weight ([5]; male, G3 100 mg/kg bw, day 14) was 177.16 g. The Fasting body weight ([5]; male, G4 150 mg/kg) was 174.95 g, the Body weight ([5]; male, G4 150 mg/kg bw, day 1) was 170.86 g and the Body weight ([5]; male, G4 150 mg/kg bw, day 7) was 180.10 g. For the same compound, the Body weight ([5]; male, G4 150 mg/kg bw, day 14) was 188.27 g, the “In vitro killing profile compared with standard drugs” value [6] was “better than atovaquone and comparable to pyrimethamine” and the IC50 (PfHDAC1) was 31 nM.
